In patent publication US4100276A, “Fusidic acid derivatives” (priority 1975, dated 1978):
Values after ≈ are worked out from the molar mass of the structure shown. Where a name gives a salt, the structure may show the parent alone. Read-outs that look alike come from different tables or passages of the source.

Legend:
[1] = tested on: Streptococcus sp. Leo EG2; experiment: In vitro activity, concentration required for 50% inhibition (Table A); format: cell-based
[2] = tested on: Staphylococcus aureus Leo CC178B; experiment: as above; format: cell-based; conditions: for IC50: LEOCC178B, read-out: Concentration required for 50% inhibition (IC50)
[3] = tested on: Streptococcus pyogenes Leo EC; experiment: as above; format: cell-based
Corynebact. acnes Leo FN = experiment: as above; format: cell-based, Corynebacterium acnes; conditions: for IC50: Cutibacterium acnes
[4] = tested on: Bacteroides fragilis, Leo JA2; experiment: as above; format: cell-based
Staph. aureus Leo CJ145 = experiment: as above; format: cell-based; conditions: for IC50: Staphylococcus aureus
[5] = tested on: Staph. aureus, Leo CC178H2 (fusidic acid resistant strain); experiment: as above; format: cell-based; conditions: Staphylococcus aureus, read-out: Concentration required for 50% inhibition (IC50)
Staphylococcus aureus = experiment: In vitro effect of combination with dihydro-fusidic acid, viable counts (Example 46); format: cell-based; conditions: tubes a, b 10 μg/ml, tube c 5 + 5 μg/ml
Experimental: In vitro-effect of the combination of dihydro-fusidic acid and 3α,11α-dihydroxy-16β-phenylthio-fusida-13(17),24-dien-21- oic acid
To three tubes containing NIH broth was added:
a. The sodium salt of dihydro-fusidic acid (10 μg/ml).
b. The sodium salt of 3α,11α-dihydroxy-16-phenylthiofusida-13(17),24-dien-21-oic acid (10 μg/ml).
c. A mixture of the sodium salts of dihydro-fusidic acid (5 μg/ml) and 3α,11α-dihydroxy-16-phenylthiofusida-13(17),24-dien-21-oic acid (5 μg/ml).
The tubes were inoculated with Staphylococcus aureus to give 5.2 × 10^5 organisms per ml, incubated at 37° C for 96 hours, and the viable counts were determined.
A fourth tube was treated similarly without addition of any of the antibiotics and used as a control: […]

[6] = tested on: fusidic acid sensitive strain of Staph. aureus (Leo CC 178B); experiment: In vitro activity before and after a number of transfers (Example 48, Table C); format: cell-based; conditions: for IC50: Staphylococcus aureus, Leo CC 178B (fusidic acid sensitive), overnight incubation
Experimental: (§1) In vitro activity of 3α,11α-dihydroxy-16β-ethylthiofusida-13(17),24-dien-21-oic acid against Staph. aureus before and after a number of transfers.
(§2) Serial dilutions of the compound above were made in liquid NIH-medium and then heavily inoculated with either a fusidic acid sensitive strain of Staph. aureus (Leo CC 178B) or with a fusidic acid resistant variant of the same strain (Leo CC 178A).
(§3) After every 72 to 96 hours transfers were made from the tubes containing the largest amount of the test compound showing full growth.

[7] = tested on: fusidic acid resistant variant of Staph. aureus (Leo CC 178A); experiment: as above; format: cell-based; conditions: for IC50: Staphylococcus aureus
Experimental: as §1, §2, §3

[8] = Staphylococcus aureus Leo CC178B
[9] = Streptococcus, read-out: Concentration required for 50% inhibition (IC50), Streptococcus sp. Leo EG2
[10] = Streptococcus pyogenes, read-out: Concentration required for 50% inhibition (IC50), Streptococcus pyogenes Leo EC
[11] = Bacteroides fragilis, LEOJA2, read-out: Concentration required for 50% inhibition (IC50), Bacteroides fragilis Leo JA2
[12] = read-out: IC50 after 1st transfer
[13] = read-out: IC50 after 2nd transfer
[14] = read-out: IC50 after 3rd transfer
[15] = read-out: IC50 after 4th transfer
[16] = read-out: IC50 after 5th transfer
[17] = read-out: IC50 after 6th transfer

## CC(C)=CCCC(C(=O)O)C1=C2C[C@@H](O)[C@H]3[C@@]4(C)CC[C@@H](O)[C@@H](C)[C@@H]4CC[C@]3(C)[C@@]2(C)C[C@@H]1SC(C)C (stereo partly drawn) [Example 31C, 3α,11α-dihydroxy-16β-isopropylthiofusida-13(17),24-dien-21-oic acid]
[1]; Streptococcus sp. Leo EG2
  Concentration required for 50% inhibition (IC50): 0.63 µg/mL
[2]; [8]
  Concentration required for 50% inhibition (IC50): 1.6 µg/mL
[3]; Streptococcus pyogenes Leo EC
  Concentration required for 50% inhibition (IC50): 0.5 µg/mL
Corynebact. acnes Leo FN; Corynebact. acnes Leo FN
  Concentration required for 50% inhibition (IC50): 0.63 µg/mL
[4]; Bacteroides fragilis Leo JA2
  Concentration required for 50% inhibition (IC50): 6.3 µg/mL
Staph. aureus Leo CJ145; Staph. aureus Leo CJ145
  Concentration required for 50% inhibition (IC50): 4.0 µg/mL

## CC(C)=CCCC(C(=O)O)C1=C2C[C@@H](O)[C@H]3[C@@]4(C)CC[C@@H](O)[C@@H](C)[C@@H]4CC[C@]3(C)[C@@]2(C)C[C@@H]1SCc1ccco1 (some centres unmarked) [Example 23]
[1]; Streptococcus sp. Leo EG2, read-out: Concentration required for 50% inhibition (IC50)
  IC50: 1.6 µg/mL (≈ 2.8 µM)
[2]; [8]
  IC50: 1.6 µg/mL (≈ 2.8 µM)
[3]; Streptococcus pyogenes Leo EC, read-out: Concentration required for 50% inhibition (IC50)
  IC50: 0.63 µg/mL (≈ 1.1 µM)
[5]
  IC50: 1.6 µg/mL (≈ 2.8 µM)
Corynebact. acnes Leo FN; Corynebact. acnes Leo FN, read-out: Concentration required for 50% inhibition (IC50)
  IC50: 0.79 µg/mL (≈ 1.38 µM)
[4]; LEOJA2, Bacteroides fragilis Leo JA2, read-out: Concentration required for 50% inhibition (IC50)
  IC50: 16 µg/mL (≈ 28 µM)
Staph. aureus Leo CJ145; LEOCJ145, Staph. aureus Leo CJ145, read-out: Concentration required for 50% inhibition (IC50)
  IC50: 7.9 µg/mL (≈ 13.8 µM)

## CC(C)=CCCC(C(=O)O)C1=C2C[C@@H](O)[C@H]3[C@@]4(C)CC[C@@H](O)[C@@H](C)[C@@H]4CC[C@]3(C)[C@@]2(C)C[C@@H]1SC(C)C (stereo partly drawn) [Example 27, 3α,11α-Dihydroxy-16β-isopropylthiofusida-13(17), 24-dien-21-oic acid]
[1]; [9]
  IC50: 1 µg/mL (≈ 1.88 µM)
[2]; Staphylococcus aureus
  IC50: 1.6 µg/mL (≈ 3 µM)
[3]; [10]
  IC50: 0.63 µg/mL (≈ 1.18 µM)
[5]
  IC50: 1.6 µg/mL (≈ 3 µM)
Corynebact. acnes Leo FN; Corynebact. acnes Leo FN
  Concentration required for 50% inhibition (IC50): 0.63 µg/mL
[4]; [11]
  IC50: 10 µg/mL (≈ 18.8 µM)
Staph. aureus Leo CJ145; LEOCJ145, read-out: Concentration required for 50% inhibition (IC50), Staph. aureus Leo CJ145
  IC50: 4 µg/mL (≈ 7.51 µM)

## CC(C)CCCC(C(=O)O)C1=C2C[C@@H](O)[C@H]3[C@@]4(C)CC[C@@H](O)[C@@H](C)[C@@H]4CC[C@]3(C)[C@@]2(C)C[C@@H]1SC(C)C (stereo partly drawn) [Example 26, 3α,11α-Dihydroxy-16β-isopropylthiofusida-13(17)-en-21-oic acid sodium salt]
[1]; [9]
  IC50: 0.5 µg/mL
[2]; Staphylococcus aureus
  IC50: 1.6 µg/mL
[3]; [10]
  IC50: 0.5 µg/mL
[5]
  IC50: 1.6 µg/mL
Corynebact. acnes Leo FN; read-out: Concentration required for 50% inhibition (IC50), Corynebact. acnes Leo FN
  IC50: 0.5 µg/mL
[4]; [11]
  IC50: 20 µg/mL

## CC(=O)O[C@H]1C[C@@]2(C)[C@@H](C[C@@H](O)[C@H]3[C@@]4(C)CC[C@@H](O)[C@@H](C)[C@@H]4CC[C@@]32C)/C1=C(\CCCC(C)C)C(=O)O [sodium salt of dihydro-fusidic acid, reference compound]
Staphylococcus aureus; 37° C, inoculum 5.2 × 10^5
  Viable counts after 6 1/2 hours: 3.1 × 10^5 organisms per ml
  Viable counts after 2 hours: 4.1 × 10^5 organisms per ml
  Viable counts after 24 hours: 6.3 × 10^6 organisms per ml
Staphylococcus aureus; 96 hours
  Resistance of surviving organisms to the compound / development of resistance: resistant to dihydro-fusidic acid

## CCS[C@H]1C[C@@]2(C)C(=C1C(CCC=C(C)C)C(=O)O)C[C@@H](O)[C@H]1[C@@]3(C)CC[C@@H](O)[C@@H](C)[C@@H]3CC[C@@]12C (stereo partly drawn) [Example 11, 3α,11α-dihydroxy-16β-ethylthiofusida-13(17),24-dien-21-oic acid sodium salt]
[1]; Streptococcus, read-out: Concentration required for 50% inhibition (IC50)
  IC50: 1.6 µg/mL
[2]; Staphylococcus aureus
  IC50: 2.7 µg/mL
[3]; Streptococcus pyogenes, read-out: Concentration required for 50% inhibition (IC50)
  IC50: 1.6 µg/mL
[5]
  IC50: 3.2 µg/mL
Corynebact. acnes Leo FN; read-out: Concentration required for 50% inhibition (IC50)
  IC50: 2 µg/mL
[6]; [12]
  IC50: 2 µg/mL
[6]; [13]
  IC50: 7.4 µg/mL
[6]; [14]
  IC50: 7.4 µg/mL
[6]; [15]
  IC50: 13.5 µg/mL
[6]; [16]
  IC50: 10 µg/mL
[6]; [17]
  IC50: 32 µg/mL
[6]; read-out: IC50 before transfer
  IC50: 2.7 µg/mL
[6]; fusidic acid sensitive strain
  Decrease of sensitivity after the 6th transfer: 12 fold
[7]; [12]
  IC50: 2.3 µg/mL
[7]; [13]
  IC50: 3.8 µg/mL
[7]; [14]
  IC50: 4.3 µg/mL
[7]; [15]
  IC50: 4.2 µg/mL
[7]; [16]
  IC50: 4 µg/mL
[7]; [17]
  IC50: 4 µg/mL
[7]; read-out: IC50 before transfer
  IC50: 2.7 µg/mL
[7]; fusidic acid resistant strain
  Change in sensitivity after transfers: hardly shows any change in sensitivity
[4]; Bacteroides fragilis, LEOJA2, read-out: Concentration required for 50% inhibition (IC50)
  IC50: 2 µg/mL
Staph. aureus Leo CJ145; LEOCJ145, read-out: Concentration required for 50% inhibition (IC50)
  IC50: 3.2 µg/mL
